Assay results published in ChEMBL document CHEMBL2163239, “Inhibitors of human immunodeficiency virus type 1 (HIV-1) attachment 6. Preclinical and human pharmacokinetic profiling of BMS-663749, a phosphonooxymethyl prodrug of the HIV-1 attachment inhibitor 2-(4-benzoyl-1-piperazinyl)-1-(4,7-dimethoxy-1H-pyrrolo[2,3-c]pyridin-3-yl)-2-oxoethanone …” (J Med Chem, 2012).
Activity calls are given as the source filed them. No cut-off for these calls is given here.

What was measured:
[1] = AUC (infinity) in high fat fed healthy human at 800 mg, po administered as capsule with high fat meal; assay type: ADME, organism-based; set-up: dose 800 mg, time infinity, route oral; conditions: plasma
[2] = Dissociation constant, pKa of compound; assay type: physicochemical
[3] = Permeability across human Caco2 cells at pH 6.5; assay type: ADME, cell-based; conditions: Caco-2, pH 6.5, read-out: permeability
[4] = Half life in high fat fed healthy human at 800 mg, po administered as capsule with high fat meal; assay type: ADME, organism-based; conditions: in vivo
Homo sapiens = assay: Toxicity in HIV 1-infected human assessed as adverse events at 1800 mg, po bid for 8 days measured upto 14 days; assay type: organism-based; conditions: in vivo
[5] = Plasma concentration in high fat fed healthy human at 800 mg, po administered as capsule with high fat meal measured after 12 hrs; assay type: ADME, organism-based
[6] = Tmax in high fat fed healthy human at 800 mg, po administered as capsule with high fat meal; assay type: ADME, organism-based; conditions: in vivo
[7] = Cmax in high fat fed healthy human at 800 mg, po administered as capsule with high fat meal; assay type: ADME, organism-based; set-up: dose 800 mg, route oral; conditions: in vivo
[8] = system: Human immunodeficiency virus 1; assay: Antiviral activity against HIV 1-infected human assessed as reduction in viral load at 1800 mg, po bid for 8 days measured upto 14 days; assay type: functional, organism-based
[9] = Lipophilicity, log P of compound in octanol-PBS mixture at pH 6.5 by HPLC-UV analysis; assay type: physicochemical

In the case of COc1ncc(OC)c2c(C(=O)C(=O)N3CCN(C(=O)c4ccccc4)CC3)c[nH]c12, the AUC(0-inf) [1] is reported as 21200 ng·h/mL, the pKa [2] is reported as 2.6 and the Papp [3] is reported as > 10 ×10⁻⁶ cm/s. For the same compound, the half-life [4] was 14 h, the Activity (Homo sapiens) was “Non-toxic” and the concentration at 12 h [5] was 175 ng/mL. The Tmax [6] was 4 h, the Cmax [7] was 4100 ng/mL and the Activity [8] was “Active”. For the same compound, the logD [9] was 1.5.
